# In US20220098196A1, “TRAPPING-FREE PARP INHIBITORS” (The Board of Regents of the University of Texas System, priority 2019, published 2022):
# Key:
# PARP1 [1] = molecular target: T1, PARP1 (Homo sapiens, UniProt P09874); assay: PARP1 trapping in HeLa cells (subcellular fractionation, chromatin-bound fraction); type: cell-based; set-up: host or cells: HeLa
# Description: Subcellular Proteins Extraction. […] The cytosolic proteins were isolated by incubating the cells with the CEB buffer for 10 min at 4° C., and centrifuged at 500 g for 5 min. The membrane proteins were isolated by incubating the pellet from previous step with the MEB buffer for 10 min at 4° C., and centrifuged at 3000 g for 5 min. The soluble nuclear proteins were isolated by incubating the pellet from previous step with the NEB buffer for 30 min at 4° C., and centrifuged at 5000 g for 5 min. The chromatin bound proteins were isolated by incubating the pellet from previous step with the NEB buffer supplemented with nuclease for 15 min at RT and centrifuged at 16000 g for 5 min. Protein concentrations were determined by the BCA assay kit.
# HeLa cells = assay: TMT global protein expression analysis in HeLa cells (whole proteome); type: cell-based, human
# Description: (§1) Quantitative Mass Spectrometry. […] Two biological replicate samples were prepared for each treatment condition. Cells were washed with cold PBS and lysed using the SDS lysis buffer. Protein concentrations were determined by the BCA assay (Thermo Fisher Scientific). For each sample, 500 μg of protein was used for the subsequent TMT experiments^34.
# For the TMT experiments, proteins were reduced with 2 mM DTT for 10 min and alkylated with 50 mM iodoacetamide for 30 min in dark. Proteins were then extracted using methanol-chloroform precipitation. […] Proteins were subsequently digested with trypsin (Thermo Fisher Scientific, at 1:100 enzyme/protein ratio) overnight at RT. Peptides were desalted with Oasis HLB cartridges (Waters) and resuspended in 200 mM HEPES (pH 8.5) to a final concentration of […]. For each sample, 100 μg of peptides were reacted with the corresponding amine-based TMT six-plex reagents (Thermo Fisher Scientific) for 1 hour. The reactions were quenched with 5% hydroxylamine solution and were combined.
# Samples were desalted and fractioned by bRPLC (basic pH reversed phase HPLC) on a ZORBAX 300 Extend-C18 column (Narrow Bore RR 2.1 mm×100 mm, 3.5 μm particle size, 300 Å pore size). Buffer A is (10 mM Ammonium Formate in H2O, pH 10.0). Gradient was developed at a flow rate of 0.2 mL/min from 0% to 70% buffer B (1 mM Ammonium Formate, pH 10.0, 90% ACN). […] Samples were then analyzed on an Orbitrap Elite mass spectrometer (Thermo Fisher Scientific) using a top 15 HCD (higher-energy collisional dissociation) method.
# (§2) The maximum intensity of each reporter ion was extracted. For each reporter ion channel, the observed signal-to-noise ratio was summed across all quantified proteins and was normalized.
# C2C12 myotubes = assay: NAD+ measurement in C2C12 myotubes after MMS; type: cell-based, mouse; settings: 5 μM 24 hours pretreatment, MMS 0.01% 4 hours (MMS alone 31%)
# Description: (§3) ATP and NAD^+ measurement. ATP levels were measured by a luminescence assay using the CellTiter-Glo luminescent kit (Promega). […] The cells were balanced for 30 min at RT. One hundred microliters of the CellTiter-Glo reagent was added into each well and incubated for 10 min. ATP levels were determined according the manufacturer's instruction. NAD^+ levels were assayed using an NAD/NADH quantification kit (Sigma). […] Approximately 2×10^5 cells were washed with 1 mL cold PBS and lysed in 400 μl of the extraction buffer. […] The samples were vortexed for 15 sec and centrifuged at 13,000 g for 10 min to remove the insoluble materials. NAD^+ was quantified according to the manufacturer's instruction (Sigma). Fifty microliters of the extracts were used in the NAD^+ assay, and the values were normalized by the amount of protein in each sample.
# [2] = test system: primary rat cardiomyocytes; assay: ATP measurement in primary rat cardiomyocytes after MMS (CellTiter-Glo); type: cell-based; settings: 5 μM 24 hours pretreatment, MMS 0.01% 9 hours
# Description: as §3
# ZFP91 = ZFP91 (Homo sapiens, UniProt Q96JP5+Q96SW2); assay: TMT quantitative proteomics in BT-549 cells, ZFP91; type: cell-based; set-up: host or cells: HeLa; BT-549; settings: iRucaparib 5 μM, 24 hours
# Sequence of ZFP91 (Q16531 2-1140): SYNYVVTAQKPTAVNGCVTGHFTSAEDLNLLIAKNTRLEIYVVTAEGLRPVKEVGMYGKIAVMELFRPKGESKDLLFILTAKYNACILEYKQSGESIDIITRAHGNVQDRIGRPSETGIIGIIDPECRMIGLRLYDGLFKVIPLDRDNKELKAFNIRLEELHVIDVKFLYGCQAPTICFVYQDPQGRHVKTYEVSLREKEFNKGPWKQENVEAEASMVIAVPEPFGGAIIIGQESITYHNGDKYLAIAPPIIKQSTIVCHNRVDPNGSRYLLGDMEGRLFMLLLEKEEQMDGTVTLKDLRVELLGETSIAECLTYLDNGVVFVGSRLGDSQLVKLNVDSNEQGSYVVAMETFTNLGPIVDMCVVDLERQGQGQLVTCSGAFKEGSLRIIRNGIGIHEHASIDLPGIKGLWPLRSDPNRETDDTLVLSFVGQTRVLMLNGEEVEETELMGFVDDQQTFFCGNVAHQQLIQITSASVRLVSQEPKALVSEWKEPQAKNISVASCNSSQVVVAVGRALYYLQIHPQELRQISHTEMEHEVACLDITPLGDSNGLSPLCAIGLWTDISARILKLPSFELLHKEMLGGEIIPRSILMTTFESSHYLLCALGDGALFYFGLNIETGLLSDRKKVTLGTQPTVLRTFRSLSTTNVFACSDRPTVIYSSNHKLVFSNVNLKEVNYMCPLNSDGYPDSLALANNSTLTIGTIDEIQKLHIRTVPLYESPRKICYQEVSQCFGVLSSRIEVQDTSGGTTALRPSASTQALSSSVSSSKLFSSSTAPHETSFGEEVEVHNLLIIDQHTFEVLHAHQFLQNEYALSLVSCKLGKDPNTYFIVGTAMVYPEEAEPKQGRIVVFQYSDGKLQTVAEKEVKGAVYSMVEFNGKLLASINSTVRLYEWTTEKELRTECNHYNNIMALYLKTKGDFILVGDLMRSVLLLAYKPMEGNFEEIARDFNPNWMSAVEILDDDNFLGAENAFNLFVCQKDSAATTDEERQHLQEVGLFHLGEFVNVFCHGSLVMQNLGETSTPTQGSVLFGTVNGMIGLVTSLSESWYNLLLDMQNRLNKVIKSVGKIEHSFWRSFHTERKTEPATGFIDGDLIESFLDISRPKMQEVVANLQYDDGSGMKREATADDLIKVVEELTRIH
# Sequence of ZFP91 (Q96SW2 whole entry): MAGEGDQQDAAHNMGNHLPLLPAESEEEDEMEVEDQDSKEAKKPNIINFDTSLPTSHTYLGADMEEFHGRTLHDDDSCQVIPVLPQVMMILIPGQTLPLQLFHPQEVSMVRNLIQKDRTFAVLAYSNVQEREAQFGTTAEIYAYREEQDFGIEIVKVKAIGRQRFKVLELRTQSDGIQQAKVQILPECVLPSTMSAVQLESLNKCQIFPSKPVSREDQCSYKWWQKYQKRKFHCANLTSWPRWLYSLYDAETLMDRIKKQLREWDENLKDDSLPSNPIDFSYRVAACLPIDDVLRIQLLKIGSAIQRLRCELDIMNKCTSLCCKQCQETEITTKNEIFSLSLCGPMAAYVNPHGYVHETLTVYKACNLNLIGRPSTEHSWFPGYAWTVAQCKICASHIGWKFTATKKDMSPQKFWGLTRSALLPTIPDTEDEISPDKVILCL
# Sequence of ZFP91 (Q96JP5 2-570): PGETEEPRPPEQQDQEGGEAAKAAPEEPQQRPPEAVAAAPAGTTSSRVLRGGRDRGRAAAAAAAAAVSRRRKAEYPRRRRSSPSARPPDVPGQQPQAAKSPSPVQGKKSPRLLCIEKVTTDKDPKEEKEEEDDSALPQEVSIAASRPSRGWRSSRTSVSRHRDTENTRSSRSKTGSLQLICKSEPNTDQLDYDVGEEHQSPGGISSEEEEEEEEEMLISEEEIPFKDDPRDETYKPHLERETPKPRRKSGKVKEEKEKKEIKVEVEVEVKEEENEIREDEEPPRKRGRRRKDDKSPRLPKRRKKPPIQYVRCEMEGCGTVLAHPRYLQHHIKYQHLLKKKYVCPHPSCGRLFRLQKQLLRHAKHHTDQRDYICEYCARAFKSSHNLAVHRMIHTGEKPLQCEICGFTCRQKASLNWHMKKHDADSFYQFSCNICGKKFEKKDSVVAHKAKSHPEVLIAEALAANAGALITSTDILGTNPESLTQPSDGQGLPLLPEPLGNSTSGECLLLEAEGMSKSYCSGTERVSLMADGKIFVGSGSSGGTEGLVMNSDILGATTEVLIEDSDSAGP
# Description: as §1
# For the TMT experiments, proteins were reduced with 2 mM DTT for 10 min and alkylated with 50 mM iodoacetamide for 30 min in dark. Proteins were then extracted using methanol-chloroform precipitation. Protein pellets were dissolved in 400 μL 8 M Urea buffer (8 M urea, 50 mM Tris-HCl, 10 mM EDTA, pH 7.5) and were digested by Lys-C (Wako, at a 1:100 enzyme/protein ratio) for 2 hours at RT. The urea concentration was then reduced to 2 M using freshly made 100 mM ammonium bicarbonate solution. […]
# Samples were desalted and fractioned by bRPLC (basic pH reversed phase HPLC) on a ZORBAX 300 Extend-C18 column (Narrow Bore RR 2.1 mm×100 mm, 3.5 μm particle size, 300 Å pore size). […] Samples were then analyzed on an Orbitrap Elite mass spectrometer (Thermo Fisher Scientific) using a top 15 HCD (higher-energy collisional dissociation) method.
# as §2
# PARP1 [3] = molecular target: T2, PARP1 (Rattus norvegicus, UniProt P27008); assay: PARP1 degradation in primary rat cardiomyocytes (immunoblotting); type: cell-based; settings: 24 hours
# T2 construct: endogenous in cells; host or cells: primary neonatal rat cardiomyocytes
# T2 sequence (P27008 whole entry): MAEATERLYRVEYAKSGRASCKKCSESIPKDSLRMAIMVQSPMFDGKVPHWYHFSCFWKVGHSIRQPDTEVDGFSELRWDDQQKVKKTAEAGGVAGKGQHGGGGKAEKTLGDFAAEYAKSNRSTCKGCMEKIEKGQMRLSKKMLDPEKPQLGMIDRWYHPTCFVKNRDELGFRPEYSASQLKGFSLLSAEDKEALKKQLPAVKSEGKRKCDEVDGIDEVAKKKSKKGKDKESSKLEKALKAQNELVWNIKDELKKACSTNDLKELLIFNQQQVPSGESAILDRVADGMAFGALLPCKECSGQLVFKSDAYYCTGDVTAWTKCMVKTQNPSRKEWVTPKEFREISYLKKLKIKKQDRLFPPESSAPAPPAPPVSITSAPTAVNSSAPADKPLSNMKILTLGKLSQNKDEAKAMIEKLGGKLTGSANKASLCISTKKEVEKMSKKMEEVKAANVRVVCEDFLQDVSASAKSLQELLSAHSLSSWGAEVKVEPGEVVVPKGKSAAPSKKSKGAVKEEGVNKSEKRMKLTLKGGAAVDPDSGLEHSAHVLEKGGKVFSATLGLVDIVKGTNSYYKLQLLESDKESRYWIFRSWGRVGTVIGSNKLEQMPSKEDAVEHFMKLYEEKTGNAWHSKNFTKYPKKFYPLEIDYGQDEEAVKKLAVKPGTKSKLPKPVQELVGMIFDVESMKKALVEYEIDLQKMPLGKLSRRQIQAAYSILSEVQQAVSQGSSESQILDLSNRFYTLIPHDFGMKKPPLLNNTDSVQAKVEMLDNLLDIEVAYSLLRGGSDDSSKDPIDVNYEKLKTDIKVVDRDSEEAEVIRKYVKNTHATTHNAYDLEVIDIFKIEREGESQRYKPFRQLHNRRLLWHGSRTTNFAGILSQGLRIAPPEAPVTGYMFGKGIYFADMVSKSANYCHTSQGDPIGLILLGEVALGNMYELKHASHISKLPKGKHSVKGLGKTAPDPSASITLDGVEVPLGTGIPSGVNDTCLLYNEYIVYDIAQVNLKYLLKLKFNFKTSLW
# Description: (§4) Immunoblotting. Cells were washed once with cold PBS and lysed with the SDS lysis buffer (1% SDS, 10 mM HEPES pH 7.0, 2 mM MgCl2, 500 U universal nuclease). Protein concentrations were determined by the BCA assay kit (Thermo Fisher Scientific). A total of 20 μg proteins (40 μg proteins for PAR immunoblotting experiments) were loaded onto the SDS-PAGE gel and were then transferred to a nitrocellulose membrane. Nitrocellulose membranes were then blocked with the TBST buffer containing 5% milk (Bio-Rad). Membranes were incubated with the primary antibodies overnight at 4° C. and the secondary antibodies for 1 hour at room temperature (RT). The blots were developed using enhanced chemiluminescence and were exposed on autoradiograph films.
# PARP1 [4] = molecular target: T1, PARP1; assay: PARP1 degradation in HeLa cells (immunoblotting); type: cell-based; set-up: host or cells: HeLa
# Description: as §4
# PARP1 [5] = molecular target: T1, PARP1; assay: PARP1 inhibition in intact HeLa cells (PAR immunoblotting after PARG inhibitor and H2O2); type: cell-based; set-up: host or cells: HeLa; settings: PDD00017273 1 hr, compound 10 μM 1 hr
# Excerpt: HeLa cells were pretreated with a cell-permeable PARG inhibitor, PDD00017273 for 1 hr to allow the accumulation of PARylated proteins.
# [6] = pre-treated 5 μM 24 hours, washout
# T1 sequence (P09874 whole entry): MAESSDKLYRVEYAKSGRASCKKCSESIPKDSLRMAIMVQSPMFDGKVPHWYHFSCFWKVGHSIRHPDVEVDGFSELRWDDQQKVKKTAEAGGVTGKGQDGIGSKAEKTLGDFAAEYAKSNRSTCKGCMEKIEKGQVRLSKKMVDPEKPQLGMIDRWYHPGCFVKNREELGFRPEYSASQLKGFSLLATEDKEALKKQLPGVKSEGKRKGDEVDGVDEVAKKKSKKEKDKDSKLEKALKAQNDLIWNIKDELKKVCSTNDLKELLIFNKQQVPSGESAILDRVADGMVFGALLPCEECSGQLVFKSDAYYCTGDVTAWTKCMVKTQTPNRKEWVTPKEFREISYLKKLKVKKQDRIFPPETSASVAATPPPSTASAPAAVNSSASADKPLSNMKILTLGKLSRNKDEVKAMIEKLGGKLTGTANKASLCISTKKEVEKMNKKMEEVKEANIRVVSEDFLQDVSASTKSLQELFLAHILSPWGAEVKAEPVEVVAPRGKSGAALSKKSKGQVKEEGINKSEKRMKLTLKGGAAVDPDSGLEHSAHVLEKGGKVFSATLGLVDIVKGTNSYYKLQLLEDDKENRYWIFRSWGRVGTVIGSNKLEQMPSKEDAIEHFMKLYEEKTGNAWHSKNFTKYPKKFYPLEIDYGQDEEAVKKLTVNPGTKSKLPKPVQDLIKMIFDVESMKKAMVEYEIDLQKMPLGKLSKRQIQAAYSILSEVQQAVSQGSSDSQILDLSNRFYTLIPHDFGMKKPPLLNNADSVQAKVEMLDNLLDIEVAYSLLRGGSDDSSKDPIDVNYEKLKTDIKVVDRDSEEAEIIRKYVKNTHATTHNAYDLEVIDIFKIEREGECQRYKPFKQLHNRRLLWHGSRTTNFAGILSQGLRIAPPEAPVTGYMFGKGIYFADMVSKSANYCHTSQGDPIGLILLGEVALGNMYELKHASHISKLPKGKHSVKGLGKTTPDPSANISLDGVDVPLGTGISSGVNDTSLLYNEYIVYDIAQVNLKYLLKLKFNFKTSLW
smiles,measurement,setting,value
"CN(CCCCc1cn(CCOCCOCCOCCNc2cccc3c2C(=O)N(C2CCC(=O)NC2=O)C3=O)nn1)Cc1ccc(-c2[nH]c3cc(F)cc4c3c2CCNC4=O)cc1 (centres unmarked) [iRucaparib, Rucaparib-Triazole-PEG3-Pomalidomide]",PARP1 trapping on chromatin (chromatin-bound fraction),"PARP1 [1]; 5 μM 24 hours, then MMS 0.01% 2 hours",undetectable in the chromatin-bound fraction
same,potency in PARP1 trapping (rank order),"PARP1 [1]; 5 μM for all compounds, MMS 0.01%","even lower amount of trapped PARP1 compared to the least potent PARP1-trapper, Veliparib"
same,proteins with 2-fold decrease (potential pomalidomide-induced degradation targets),"HeLa cells; DMSO vs. iRucaparib (5 μM) plus Rucaparib (1 μM), 24 hours",UBBP4 and ZFP91
same,number of proteins with abundance decreased by more than 2-fold,"HeLa cells; iRucaparib 5 μM 24 hours vs DMSO, 7,437 quantified proteins",five
same,"downregulation of other PARPs (PARP16, PARP14, PARP4, PARP12, PARP9, TNKS1)","HeLa cells; iRucaparib 5 μM, 24 hours",none of the other PARPs exhibited significant downregulation
same,"NAD+ levels, % of that in control cells",C2C12 myotubes,74%
same,rescue of MMS-lowered ATP abundances,[2],could be rescued
same,ZFP91 decrease,ZFP91,~3 fold
same,PARP1 degradation,PARP1 [3],robust iRucaparib-induced PARP1 degradation
same,concentration at which PARP1 expression was reduced to the lowest level,PARP1 [4]; 24 hours,2 to 5 µM
same,concentration at which a decrease in PARP1 degradation was observed (hook effect),PARP1 [4]; 24 hours,≥ 10 µM
same,PARP1 degraded,"PARP1 [4]; iRucaparib 5 μM, after 12 hours treatment",~50%
same,time for which decreased PARP1 abundance persisted,"PARP1 [4]; iRucaparib 5 μM, time course",at least 72 hrs
same,PARP1 degradation,"PARP1 [4]; increasing concentrations, 24 hours",robust degradation of PARP1
same,time after compound washout at which PARP1 levels were partially recovered,PARP1 [4]; [6],4 to 8 h
same,time after compound washout to reach the pre-treatment PARP1 level,PARP1 [4]; [6],about 36 hrs
same,"PARP1 activity (PAR signal, PARP1 mobility shift)",PARP1 [5],completely blocked
